Test results as given in PubChem BioAssay AID651650 (Sanford-Burnham Center for Chemical Genomics, 2012).
The source made the active and inactive calls.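 How the source made its calls: active means mean IC50 below 20 µM in each of the two panels, so potent in both; inactive means the rest.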

Target: Neuropilin-1 (Homo sapiens) (UniProt O14786)
Test: blockers of CendR peptide binding to NRP-1 – biochemical, FP and AlphaScreen panel, dose response (AID 651650)
Details: NRP-1 b1b2 / RPARPAR peptide binding, FP or AlphaScreen
[1] = AlphaScreen, run 1, individual panel run IC50
[2] = FP, run 1, individual panel run IC50
[3] = FP, run 2, individual panel run IC50

Neuropilin-1 (Homo sapiens), sequence (O14786 whole entry, looked up): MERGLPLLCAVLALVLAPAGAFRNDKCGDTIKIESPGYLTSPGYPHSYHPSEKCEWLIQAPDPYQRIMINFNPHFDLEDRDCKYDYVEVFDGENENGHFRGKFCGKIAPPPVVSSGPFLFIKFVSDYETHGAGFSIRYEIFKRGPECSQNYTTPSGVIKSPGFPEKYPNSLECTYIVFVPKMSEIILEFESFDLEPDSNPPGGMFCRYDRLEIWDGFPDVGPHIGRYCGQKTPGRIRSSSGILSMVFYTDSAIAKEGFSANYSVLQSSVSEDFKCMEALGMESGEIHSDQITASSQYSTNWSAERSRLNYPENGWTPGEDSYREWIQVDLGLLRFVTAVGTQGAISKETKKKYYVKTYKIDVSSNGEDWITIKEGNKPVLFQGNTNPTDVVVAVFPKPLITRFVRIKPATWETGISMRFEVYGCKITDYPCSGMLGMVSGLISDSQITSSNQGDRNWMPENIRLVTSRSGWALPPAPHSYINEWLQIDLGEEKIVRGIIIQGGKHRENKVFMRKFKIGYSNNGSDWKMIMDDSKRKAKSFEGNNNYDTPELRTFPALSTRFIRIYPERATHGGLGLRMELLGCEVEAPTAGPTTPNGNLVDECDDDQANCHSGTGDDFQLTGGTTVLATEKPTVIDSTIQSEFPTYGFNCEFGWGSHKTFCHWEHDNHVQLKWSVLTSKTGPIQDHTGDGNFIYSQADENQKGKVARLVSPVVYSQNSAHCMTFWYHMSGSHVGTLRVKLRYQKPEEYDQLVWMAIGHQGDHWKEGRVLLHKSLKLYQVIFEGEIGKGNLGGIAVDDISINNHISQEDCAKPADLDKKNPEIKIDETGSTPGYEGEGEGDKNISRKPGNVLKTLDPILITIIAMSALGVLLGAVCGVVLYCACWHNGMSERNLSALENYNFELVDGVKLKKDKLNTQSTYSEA

SMILES	IC50 (AlphaScreen, mean of runs)	IC50 [1]	IC50 (FP, mean of runs)	IC50 [2]	IC50 [3]
O=C(Nc1ccc(N2CCOCC2)cc1)c1cc(-n2cnnc2)ccc1Cl	> 100 µM (inactive)	> 100 µM	> 95 µM (inactive)	> 95 µM	> 95 µM
Cc1onc(-c2ccc(Cl)cc2Cl)c1-c1csc(COc2ccccc2)n1	inactive	59.1 µM	> 95 µM (inactive)	> 95 µM	> 95 µM
C=C1CCN([C@@H](CC(C)C)C(=O)NCc2ccccc2)S(=O)(=O)c2ccccc21	> 100 µM (inactive)	> 100 µM	> 95 µM (inactive)	> 95 µM	> 95 µM
O=C1C=CC(=O)C2C1C1(Cl)C(Cl)=C(Cl)C2(Cl)C1(Cl)Cl (stereo not given)	> 100 µM (inactive)	> 100 µM	> 95 µM (inactive)	> 95 µM	> 95 µM
CCCN=C1N/C(=C\c2ccco2)C(=O)N1c1ccccc1	> 100 µM (inactive)	> 100 µM	> 95 µM (inactive)	> 95 µM	> 95 µM
CCN(CC)C(=O)CSc1nnc(-c2c[nH]c3ccccc23)o1	> 100 µM (inactive)	> 100 µM	> 95 µM (inactive)	> 95 µM	> 95 µM
O=C1CCC/C=C\C[C@@H](CC(=O)N(CCO)Cc2ccccc2)C(=O)N2CCC[C@H]2CO1	> 100 µM (inactive)	> 100 µM	> 95 µM (inactive)	> 95 µM	> 95 µM
C#CCCOC(=O)N1C2=NC(C(=O)OC)=C(C(=O)OC)[C@@H]3N(C)c4ccccc4[C@]23C[C@H]1CO	9.53 µM	9.53 µM	> 95 µM (inactive)	> 95 µM	> 95 µM
CCc1ccc(NS(=O)(=O)c2c(C(=O)N3CCCCCC3)c(C)n(C)c2C)cc1	> 100 µM (inactive)	> 100 µM	> 95 µM (inactive)	> 95 µM	> 95 µM
CC1(C)S[C@@H]2[C@H](NC(=O)COc3ccccc3)C(=O)N2C1C(=O)OCc1ccccc1 (stereo not given in full)	> 100 µM (inactive)	> 100 µM	> 95 µM (inactive)	> 95 µM	> 95 µM
CCc1cc(C(=O)OC)c(NC(=O)c2ccoc2C)s1	> 100 µM (inactive)	> 100 µM	> 95 µM (inactive)	> 95 µM	> 95 µM
COc1ccc(N(CC(=O)NCc2ccco2)C(=O)CCC(=O)Nc2ccccn2)cc1	> 100 µM (inactive)	> 100 µM	> 95 µM (inactive)	> 95 µM	> 95 µM
CCC1=C(OC(=O)N(CC)CC)N2C(=O)OC(=NCC3CC3)[C@]2(Cc2ccccc2)[C@H]2C1=CC[C@H]1C(=O)N(C)C(=O)[C@H]12	> 100 µM (inactive)	> 100 µM	> 95 µM (inactive)	> 95 µM	> 95 µM
Cc1cc(=O)n2nc(N3CCCC(C(=O)N4CCOCC4)C3)sc2n1 (stereo not given)	> 100 µM (inactive)	> 100 µM	> 95 µM (inactive)	> 95 µM	> 95 µM
Cn1c(=O)c2[nH]c(COc3ccccc3)nc2n(C)c1=O	> 100 µM (inactive)	> 100 µM	> 95 µM (inactive)	> 95 µM	> 95 µM
C=CCC1(CC=C)CCCN1C(=O)c1cc(COc2cccc(OC)c2)on1	> 100 µM (inactive)	> 100 µM	> 95 µM (inactive)	> 95 µM	> 95 µM
O=C(NCCOC(=O)c1ccccc1)c1ccccc1	inactive	45.3 µM	> 95 µM (inactive)	> 95 µM	> 95 µM
CC(Nc1ccc2ccccc2c1)C(=O)N/N=C/c1ccncc1 (stereo not given)	> 100 µM (inactive)	> 100 µM	> 95 µM (inactive)	> 95 µM	> 95 µM
CCOc1ccc(-n2c(Cc3cc(=O)[nH]c(=O)[nH]3)nnc2SC(C)C)cc1	> 100 µM (inactive)	> 100 µM	> 95 µM (inactive)	> 95 µM	> 95 µM
CN(c1ccccc1)S(=O)(=O)c1cccc(NC(=O)CSc2nncn2C)c1	> 100 µM (inactive)	> 100 µM	> 95 µM (inactive)	> 95 µM	> 95 µM
O=Cc1ccc(-c2ccccc2C(=O)O)o1	> 100 µM (inactive)	> 100 µM	> 95 µM (inactive)	> 95 µM	> 95 µM
COc1ccc2c(c1)N(C)/C(=C1/SC(=NCc3ccccc3)N(c3ccccc3)C1=O)S2	> 100 µM (inactive)	> 100 µM	> 95 µM (inactive)	> 95 µM	> 95 µM

SMILES	IC50 (AlphaScreen, mean of runs)	IC50 [1]	IC50 (FP, mean of runs)	IC50 [2]	IC50 [3]
O=C(CSc1nnc(CNC(=O)C23CC4CC(CC(C4)C2)C3)n1-c1ccccc1)Nc1ccc(F)cc1	> 100 µM (inactive)	> 100 µM	> 95 µM (inactive)	> 95 µM	> 95 µM
Nc1ccc(C(=O)Nc2ccc(Nc3ccncc3)cc2)c([N+](=O)[O-])c1	2.27 µM	2.27 µM	> 95 µM (inactive)	> 95 µM	> 95 µM
CCCCOc1ccc(S(=O)(=O)N2CCN(C)CC2)cc1	inactive	76.4 µM	> 95 µM (inactive)	> 95 µM	> 95 µM
O=C1CCCN1CCCNC(=S)Nc1ccc(Cl)cc1Cl	> 100 µM (inactive)	> 100 µM	> 95 µM (inactive)	> 95 µM	> 95 µM
CCOC(=O)Cn1c(=O)n(Cc2ccco2)c(=O)c2ccc(C(=O)NC3CCCC3)cc21	inactive	63.7 µM	> 95 µM (inactive)	> 95 µM	> 95 µM
Cc1ccccc1NC(=O)c1cccc(NC(=O)CCC(=O)O)c1	> 100 µM (inactive)	> 100 µM	> 95 µM (inactive)	> 95 µM	> 95 µM
O=C(c1ccc(-c2cccc(Cl)c2)o1)N1CCN(c2ccc([N+](=O)[O-])cc2)CC1	> 100 µM (inactive)	> 100 µM	inactive	> 95 µM	39.5 µM
CN(Cc1ccccc1)C(=O)c1nc[nH]c1C(=O)N1CCN(C(=O)OC(C)(C)C)CC1	> 100 µM (inactive)	> 100 µM	> 95 µM (inactive)	> 95 µM	> 95 µM
O=C(O/N=C1/CCSc2ccccc21)c1ccccc1	> 100 µM (inactive)	> 100 µM	> 95 µM (inactive)	> 95 µM	> 95 µM
O=C(Cc1ccccc1Cl)N1CCOCC1	> 100 µM (inactive)	> 100 µM	> 95 µM (inactive)	> 95 µM	> 95 µM
CC(=O)Nc1cccc(-c2csc(NCc3ccccc3)n2)c1	> 100 µM (inactive)	> 100 µM	> 95 µM (inactive)	> 95 µM	> 95 µM
C/C(=N\NC(=O)c1cc(O)ccc1O)c1cccc(NC(=O)c2cccc(Cl)c2)c1	> 100 µM (inactive)	> 100 µM	> 95 µM (inactive)	> 95 µM	> 95 µM
CCCS(=O)(=O)N1CCC(Cc2ccc(OC)cc2)(C(=O)OCC)CC1	> 100 µM (inactive)	> 100 µM	> 95 µM (inactive)	> 95 µM	> 95 µM
COc1ccc(CCNC(=O)c2ccc(Cl)c(S(=O)(=O)N(C)c3ccccc3)c2)cc1	> 100 µM (inactive)	> 100 µM	> 95 µM (inactive)	> 95 µM	> 95 µM
O=C1CCC[C@@H]2Cc3nc4cc5c(cc4cc3[C@@H]3CCN1[C@H]23)OCO5	> 100 µM (inactive)	> 100 µM	> 95 µM (inactive)	> 95 µM	> 95 µM
CCOC(=O)Cc1csc(NC(=O)CSc2ncnc3c2cnn3-c2ccccc2Cl)n1	> 100 µM (inactive)	> 100 µM	> 95 µM (inactive)	> 95 µM	> 95 µM
CCN(c1ccccc1)S(=O)(=O)c1ccc(C(=O)N(CCCN(C)C)c2nc3cc4c(cc3s2)OCO4)cc1	inactive	37.1 µM	> 95 µM (inactive)	> 95 µM	> 95 µM
Cn1c(=O)c2[nH]c(NCCCN3CCOCC3)nc2n(C)c1=O	> 100 µM (inactive)	> 100 µM	inactive	> 95 µM	56.1 µM
CCOC(=O)Cc1cnc(NC(=O)NC(C(=O)OCC)(c2ccccc2)C(F)(F)F)s1 (stereo not given)	inactive	25.1 µM	> 95 µM (inactive)	> 95 µM	> 95 µM
C[C@@H](NC(=O)c1nc[nH]c1C(=O)NCc1ccccc1)c1ccccc1	> 100 µM (inactive)	> 100 µM	> 95 µM (inactive)	> 95 µM	> 95 µM
Cc1ccc(Cl)c(NC(=O)CSc2cccc[n+]2[O-])c1Cl	> 100 µM (inactive)	> 100 µM	> 95 µM (inactive)	> 95 µM	> 95 µM
COc1ccc(/C=N/NC(=O)c2nn(-c3ccc(Cl)cc3)c(=O)c3c(N)scc23)cc1	> 100 µM (inactive)	> 100 µM	> 95 µM (inactive)	> 95 µM	> 95 µM
